Experimental findings from patent US10280198B2, “Therapeutic agents for reducing parathyroid hormone levels” (KAI PHARMACEUTICALS, INC., priority 2009, dated 2019) are described below.

Data set [1] addresses T1, human calcium-sensing receptor (CaSR) (Homo sapiens, UniProt P41180).
T1 construct: expressed in transfected cells; host or cells: HEK 293T cells, transiently transfected (lipofectamine 2000); in some cases HEK293 cells stably transfected
T1 sequence (P41180 20-1078): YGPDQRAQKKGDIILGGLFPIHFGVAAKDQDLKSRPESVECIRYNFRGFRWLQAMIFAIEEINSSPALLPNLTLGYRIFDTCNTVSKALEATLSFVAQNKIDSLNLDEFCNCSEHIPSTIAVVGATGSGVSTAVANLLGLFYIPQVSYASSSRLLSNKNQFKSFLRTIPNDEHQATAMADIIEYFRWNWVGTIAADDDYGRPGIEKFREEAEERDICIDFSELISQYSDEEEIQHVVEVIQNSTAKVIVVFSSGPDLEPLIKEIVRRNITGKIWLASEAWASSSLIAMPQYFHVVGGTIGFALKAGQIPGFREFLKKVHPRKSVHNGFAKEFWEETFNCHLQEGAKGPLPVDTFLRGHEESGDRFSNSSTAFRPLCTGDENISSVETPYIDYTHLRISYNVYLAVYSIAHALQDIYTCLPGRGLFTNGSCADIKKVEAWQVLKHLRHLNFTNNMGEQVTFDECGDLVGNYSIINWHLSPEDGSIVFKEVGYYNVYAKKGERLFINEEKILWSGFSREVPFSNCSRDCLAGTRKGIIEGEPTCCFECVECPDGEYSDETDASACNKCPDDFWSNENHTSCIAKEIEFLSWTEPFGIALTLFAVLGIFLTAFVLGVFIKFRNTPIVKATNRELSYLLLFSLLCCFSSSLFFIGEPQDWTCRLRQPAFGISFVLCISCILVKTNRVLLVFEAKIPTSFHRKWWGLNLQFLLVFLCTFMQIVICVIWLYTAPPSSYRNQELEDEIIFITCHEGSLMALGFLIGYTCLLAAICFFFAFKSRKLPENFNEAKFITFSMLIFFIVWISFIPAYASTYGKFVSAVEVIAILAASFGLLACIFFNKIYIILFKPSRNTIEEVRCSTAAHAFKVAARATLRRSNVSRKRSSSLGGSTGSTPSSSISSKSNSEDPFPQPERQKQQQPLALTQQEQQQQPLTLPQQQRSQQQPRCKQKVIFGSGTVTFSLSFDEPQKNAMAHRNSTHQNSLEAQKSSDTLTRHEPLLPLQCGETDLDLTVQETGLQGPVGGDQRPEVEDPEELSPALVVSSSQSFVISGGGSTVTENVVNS
Briefly: In vitro cell assay in HEK-293 expressing the human calcium-sensing receptor (IP1 production). Type of data set: cell-based. In short, it runs like this:
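HEK293 cells transfected with human CaSR exposed to peptides at eight concentrations in duplicate (top 1 mM or 300 μM, ½-log dilutions) at 37 °C for 1.5 h.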

In data set [2] the test system is rat peritoneal mast cells. As to the kind of experiment: In vitro histamine induction in rat peritoneal mast cells. Type of data set: cell-based. An outline of the steps: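 Mast cells from peritoneal lavage of Sprague Dawley rats were incubated with compound at 10 μM for 15 min at 37 °C in HBSS + 25 mM HEPES pH 7.4. Supernatant histamine measured by EIA; response expressed as fold change versus pre-incubation levels.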

Data set [3] deals with plasma histamine. The note with it: rat. As for the experimental part:
For the in vivo evaluation of histamine release, compounds were dosed in isoflurane-anesthetized normal rats at 2 mg/kg by IV bolus (administered over less than one minute). Plasma histamine was measured 5 minutes after compound administration (Cayman histamine EIA #589651).

The mark [4] stands for this setting: Table 5, IP1 production in HEK293 cells expressing human CaSR, eight concentrations in duplicate, read-out: EC50 in CaSR in vitro assay.

By EC50 is commonly meant the concentration that produces a half-maximal response.

Molecules are shown by their SMILES. Read-outs that look alike come from different tables or passages of the source.

For the molecule `CC(=O)N[C@H](CS)C(=O)N[C@H](CCCNC(=N)N)C(=O)N[C@H](CCCNC(=N)N)C(=O)N[C@H](CCCNC(=N)N)C(=O)N[C@H](CCCNC(=N)N)C(=O)N[C@H](CCCNC(=N)N)C(=O)N[C@H](CCCNC(=N)N)C(N)=O` [SEQ ID NO: 6, Ac-crrrrrr-NH2], the EC50 in data set [1] (Table 1, IP1 in HEK293 cells expressing human CaSR, read-out: In vitro EC50) came out at 500 nM; in data set [1] (setting [4]), 500 nM. The “Histamine in vitro Fold change of non-treated at 10 uM” value in data set [2] is recorded as 11.5 fold. The “Histamine response in vivo Fold change from pre-dose levels 5′ post injection 2 mg/kg IV bolus” value in data set [3] was 2.7 fold.
For the molecule `CC(=O)N[C@H](CS)C(=O)N[C@H](C)C(=O)N[C@H](CCCNC(=N)N)C(=O)N[C@H](CCCNC(=N)N)C(=O)N[C@H](CCCNC(=N)N)C(=O)N[C@H](C)C(=O)N[C@H](CCCNC(=N)N)C(N)=O` [SEQ ID NO: 26, Ac-carrrar-NH2], in data set [1] (setting [4]), the EC50 worked out at 1600 nM. Further, in data set [2], the “Histamine in vitro Fold change of non-treated at 10 uM” value came to 1.4 fold. Also, in data set [3], the “Histamine response in vivo Fold change from pre-dose levels 5′ post injection 2 mg/kg IV bolus” value was 1.0 fold.
